Values joined by “and” are separate entries in the source; they are usually repeats but may differ in a detail not shown here. Equal entries are not always repeated. Where two headings read alike, the source gives them in different places.
What was measured:
[1] = test system: CV-1 Normal Monkey Kidney Epithelial; assay: Clonogenic dye screening assay, CV-1 cells (IC50); type: cell-based, African green monkey; conditions: for CV (IC50 in the CV-1 cell line): 3 hrs treatment, unit from method b117-118; for IC50: Primates
Text: CX-1 is a cancerous human colon adenocarcinoma cell line. CV-1 is a non-cancerous control, which is a kidney epithelial cell line from an African green monkey. IC50 is the dye concentration at which 50% of the cells are killed. Selectivity or kill ratio is defined as the ratio of […] at IC50 for both CX-1 and CV-1. A ratio with a high number indicates a high selectivity.
The dyes were screened in two cell lines. CX-1 is a human colon adenocarcinoma cell line. CV-1 is a kidney epithelial cell line from an African green monkey. CV-1 was used as a reference because no normal human epithelial cell line is available for clonogenic assay.
In the initial screen, dyes were examined at six different concentrations to generate a dose response curve. An IC50 value, the concentration at which 50% of the cells are killed, was then calculated. Initially, a dye concentration of 1.0 μg/mL was the highest examined for the CX-1 cell line and 0.005 μg/mL was the lower limit. The corresponding limits on the CV-1 cell line were […].
The screening procedure used a response curve that was determined from eight dye concentrations. The upper and lower limits of CX-1 were 0.32 and 0.0015 μg/mL, respectively, and the corresponding revised limits on CV-1 were 3.2 and 0.025 μg/mL. The screening results were reported by assigning an IC50 value to each dye for the CV-1 and CX-1 cell lines. These values will be referred to herein simply as CV and CX. The most desirable result would be to have a dye that was highly toxic to carcinoma cells but nontoxic to ‘normal’ cells. One measure of this type of selectivity is the ratio of the IC50's in the normal cell line to that in the carcinoma line, CV/CX.
Compounds are screened via an in vitro assay. CV-1 and CX-1 cells are seeded into separate assay plates. The plates are treated with varying concentrations of test compounds, rinsed, and colonies allowed to grow. IC50's are determined and drugs evaluated based on their selectivity and toxicity. Assay Steps: • I. Seeding Cells • II. Weighing • III. Preparation of Solution • IV. Treatment • V. Rinsing and Feeding • VI. Fixing • VII. IC50 Determination I. Seeding Cells
The cells should be seeded 16-30 hours before treatment. The media for CV-1 cells is DME+5% calf serum +5% Nuserum. The media for CX-1 cells is RPMI/DME (50/50)+5% calf serum +5% Nuserum.
(c) number of cells based on 2000 CX-1 cells/well and 1000 CV-1 cells/well. NOTE: Always make enough cell suspension for 1 extra plate to allow for volume loss during transfers.
• (a) For CV-1: 256 ug/ml-256 ul of 1 mg/ml stock +744 ul DMSO • (b) For CX-1: 25.6 ug/ml-100 ul of 256 ug/ml+900 ul DMSO IV. Treatment • 1. Each plate is treated with 4 test compounds, one positive control and one negative control. • 2. Serial dilutions of the compounds are made in the following way:
2 multi-well pipetters are used. One is set for 10 ul and one for 200 ul. Each is equipped with 6 tips spaced such that they fit into the 6 rows of a plate. 390 ul of media is added to the first column of each plate. 10 ul each of 4 compound solutions, a positive and a negative control are taken up and put into the first column of wells. The 200 ul pipetter is then placed in the same wells, pipetted up and down 3 times and two 200 ul aliquots are moved to the next column of wells. This column is pipetted up and down 3 times and 400 ul moved to column 3, etc. The final 400 ul excess from column 8 is discarded.
• 3. Label the plates along the front, each row −1 compound. • 4. Incubate the plates at 37° C. for 3 hrs. V. Rinsing • 1. Prepare several bottles of CX-1 and CV-1 media. • 2. Check for precipitate in first column of each plate and note. • 3. Starting with the plates treated first, rinse several plates at a time by aspirating the treatments and refilling each well with 0.5-1.0 ml of the rinse media. Aspirate and refill 2 more times for a total of 3 rinses. • 4.

[2] = test system: CX-1 Human Colon Carcinoma; assay: Clonogenic dye screening assay, CX-1 cells (IC50); type: cell-based; set-up: CX: unit not given here; conditions: for CX (IC50 in the CX-1 cell line): 3 hrs treatment, unit from method b117-118; for CV/CX (selectivity, kill ratio): ratio of IC50 in normal CV-1 line to IC50 in carcinoma CX-1 line; for IC50: Homo sapiens; for CV/C: Table XXI, selectivity ratio, value of 1 where dye inactive; for Selectivity: Table 1, cell line not given, values equal CV/CX of Table II
In short: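 Cells seeded 16-30 h ahead (2000 CX-1 or 1000 CV-1 per well), exposed to serially diluted dyes for 3 h at 37 °C, rinsed three times, then grown into colonies. Eight-point curves spanned 0.32-0.0015 μg/mL (CX-1) and 3.2-0.025 μg/mL (CV-1). IC50 is the concentration killing 50% of cells.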

[3] = CV-1, 3 hrs treatment, colonies after 7-10 days, unit from method, read-out: CV (IC50 in the CV-1 cell line)
[4] = CX-1, 3 hrs treatment, colonies after 7-10 days, unit from method, read-out: CX (IC50 in the CX-1 cell line)
[5] = CV-1, Table XXI, oxathiacarbocyanine nitrogen substituents, CV-1 cells, read-out: CV
[6] = CX-1, Table XXI, oxathiacarbocyanine nitrogen substituents, CX-1 cells, read-out: CX
[7] = CV-1, Table XVI, unsymmetrical dyes, CV-1 cells, read-out: CV
[8] = CX-1, Table XVI, unsymmetrical dyes, CX-1 cells, read-out: CX
[9] = Table XVI, selectivity ratio of IC50 values
[10] = Table XVI, unsymmetrical dyes, CX-1 cells

Compound	CV/CX (selectivity, kill ratio) [2]	IC50 [1, 3] [µg/mL]	IC50 [2, 4] [µg/mL]	further results
CCN1/C(=C/C=C/c2oc3ccccc3[n+]2CC)Sc2cccc(-c3ccccc3)c21.[I-] [Dye D-106]	80			CV (IC50 in the CV-1 cell line) ([1]; colonies after 7-10 days): 0.8 µg/mL; CX (IC50 in the CX-1 cell line) ([2]; colonies after 7-10 days): 0.01 µg/mL
CCN1C(=O)/C(=C\C=C2/Oc3ccccc3N2CC)S/C1=N\c1sc2ccccc2[n+]1CC [Dye D-107]	60	3	0.05	
CCN1/C(=c2/s/c(=c3\s/c(=C\c4ccc5ccccc5[n+]4CC)n(CC)c3=O)n(CC)c2=O)Sc2ccccc21 [Dye D-108]	71.15	3.2	0.045	
CCN1/C(=C\C=c2\s/c(=C/c3sc4ccccc4[n+]3CC)n(C)c2=O)Sc2ccccc21 [Dye D-111]	270 and 266.7	8	0.03	
CCN1/C(=C/C=C/c2sc3cc4ccccc4nc3[n+]2CC)Sc2ccc3ccccc3c21 [Dye D-114]	60	3	0.05	
C(=C\c1cc[n+]2c3c(cccc13)Sc1ccccc1-2)/C=c1\ccn2c3ccccc3sc3cccc1c3-2 [Dye D-117]	70	7	0.1	
CC[n+]1c(/C=C/C=C2\SC=C(C)N2C)oc2ccccc21 [Dye D-120]	500	5	0.01	
CCN(CC)CCN1/C(=C/C(C)=C/c2sc3ccccc3[n+]2CCN(CC)CC)Sc2ccccc21 [Dye D-121]	80	0.8	0.01	
CC[n+]1c(/C=C/C=C2\Sc3ccccc3N2C(C)C)oc2ccccc21 [Dye D-122]	80 and >80.0	0.4	< 0.005	IC50 [1, 5]: 0.4 µg/mL; IC50 [2, 6]: < 0.005 µg/mL; CV/C [2]: >80.0
CCN1C=C(c2ccccc2)O/C1=C\C=C\c1sc2ccccc2[n+]1CC [Dye D-123]	80	0.4	0.005	IC50 [1, 7]: 0.4 µg/mL; IC50 [2, 8]: 0.005 µg/mL; CV/CX [2, 9]: 80.0
CC[n+]1c(/C=C/C=C2\Sc3ccccc3N2CC#N)oc2ccccc21 [Dye D-124]	100	10	0.1	IC50 [1, 5]: 10 µg/mL; IC50 [2, 6]: 0.1 µg/mL; CV/C [2]: 100.0
CCN1/C(=C/C=C/c2sc3ccccc3[n+]2CCO)Sc2ccccc21 [Dye D-125]	>91.4	> 3.2	0.035	IC50 ([1]; CV-1, Table XX, thiacarbocyanine nitrogen substituents, CV-1 cells, read-out: CV): > 3.2 µg/mL; IC50 ([2]; CX-1, Table XX, thiacarbocyanine nitrogen substituents, CX-1 cells, read-out: CX): 0.035 µg/mL; CV/CX ([2]; Table XX, ratio given a value of 1 where dye inactive): 91.4
CCSC(=C\c1oc2ccccc2[n+]1C)/C=C1\Sc2ccccc2N1CC.[I-] [Dye D-127]	60			CV (IC50 in the CV-1 cell line) ([1]; colonies after 7-10 days): 0.3 µg/mL
CCN1/C(=C/C=C/c2oc3ccccc3[n+]2CC)Sc2ccc(O)cc21.[I-] [Dye D-128]	60			CV (IC50 in the CV-1 cell line) ([1]; colonies after 7-10 days): 0.3 µg/mL
CN1/C(=C/c2ccc3ccc4ccccc4c3[n+]2C)Sc2ccccc21 [Dye D-130]	100	0.5	0.005	
CC[n+]1c(/C=C/C=C2/c3c(C)ccc(C)c3C(C)(Cc3ccccc3)N2C)sc2ccccc21 [Dye D-132]	430 and 428.57	3	0.007	IC50 [1, 7]: 3 µg/mL; IC50 [2, 8]: 0.007 µg/mL; Selectivity [2]: 428.57; CV/CX [2, 9]: 428.6

Compound	CV/CX (selectivity, kill ratio) [2]	IC50 [1, 3] [µg/mL]	IC50 [2, 4] [µg/mL]	further results
CC[n+]1c(/C=C/C=C2/c3c(C)ccc(C)c3C(C)(Cc3ccccc3)N2C)sc2ccc3ccccc3c21 [Dye D-133]	333.5	3	0.009	Selectivity [2]: 333.5
CCN1/C(=C/C=C/c2sc3ccccc3[n+]2CC)[Se]c2ccc(OC)cc21 [Dye D-134]	80			IC50 ([1]; CV-1, read-out: CV (IC50 in the CV-1 cell line)): 0.2 µg/mL; IC50 ([2]; CX-1, read-out: CX (IC50 in the CX-1 cell line)): 0.0025 µg/mL
CCN1C(=CC=Cc2oc3ccc(F)cc3[n+]2CC)Oc2ccc(F)cc21 [drawing 45|5-F|5-F]	10.0			CX (IC50 in the CX-1 cell line) ([2]; colonies after 7-10 days): >.32 µg/mL
CCN1C(=CC=Cc2oc3ccc(OC)cc3[n+]2CC)Oc2ccc(OC)cc21 [drawing 45|5-MeO|5-MeO]	5.16			CX (IC50 in the CX-1 cell line) ([2]; colonies after 7-10 days): 0.31 µg/mL
CCN1/C(=C/C=C/c2oc3c(-c4ccccc4)cccc3[n+]2CC)Oc2c(-c3ccccc3)cccc21 [drawing 45|7-Ph|7-Ph]	5.0			CX (IC50 in the CX-1 cell line) ([2]; colonies after 7-10 days): 0.16 µg/mL
CCN1C(=CC=Cc2oc3ccccc3[n+]2CC)Oc2ccccc21 [drawing 45|H|H]	30.0			CX (IC50 in the CX-1 cell line) ([2]; colonies after 7-10 days): 0.10 µg/mL
CCN1/C(=C\C=C\c2[se]c3ccccc3[n+]2CC)Sc2cc(O)c(O)cc21 [drawing 46|Se|S|H|5,6-OH]	33.3			CX (IC50 in the CX-1 cell line) ([2]; colonies after 7-10 days): 0.30 µg/mL
CCN1C(=CC=Cc2sc3cc(O)c(O)cc3[n+]2CC)Oc2ccccc21 [drawing 46|S|O|5,6-OH|H]	8.0			
CCN1C(=CC=Cc2[te]c3ccccc3[n+]2CC)[Te]c2ccccc21 [drawing 46|Te|Te|H|H]	16.7			CX (IC50 in the CX-1 cell line) ([2]; colonies after 7-10 days): 0.30 µg/mL
CCN1/C(=C/C=C/c2sc3ccc4ccccc4c3[n+]2CC)Sc2cc(N)ccc21 [drawing 47|NH2]	40			CX (IC50 in the CX-1 cell line) ([2]; colonies after 7-10 days): 0.10 µg/mL
CCN1C(=CC=c2sc(=Cc3sc4ccccc4[n+]3CC)n(CC)c2=O)Sc2ccccc21 [drawing 51|Et]	22.8			CX (IC50 in the CX-1 cell line) ([2]; colonies after 7-10 days): 0.07 µg/mL
CC[n+]1c(/C=C/C=C2\[Te]c3ccc4ccccc4c3N2C)sc2ccccc21 [naphtho/1,2/tellurazole]				CX [2, 10]: 0.10; CV/CX [2, 9]: 3.0
CC[n+]1c(/C=C/C=C2\Sc3ccc4ccccc4c3N2C)sc2ccccc21 [naphtho/1,2/thiazole (R=E/M)]				CX [2, 10]: 0.300; CV/CX [2, 9]: 13.3
CN1/C(=C/C=C/c2sc3ccccc3[n+]2C)Sc2ccc3ccccc3c21 [naphtho/1,2/thiazole (R=M)]				CX [2, 10]: <0.005; CV/CX [2, 9]: 10.0
CCN1C(=CC=Cc2sc3ccccc3[n+]2CC)Sc2cc3ccccc3cc21 [naphtho/2,3/thiazole]				CX [2, 10]: 0.007; CV/CX [2, 9]: 57.0

Reference: patent publication US20060099712A1, “Correlation of anti-cancer activity of dyes with redox potentials” (Eastman Kodak Company, priority 2004, published 2006)
